Test results taken from US4210754A, “Morpholino containing benzamides” (Hoffmann-La Roche Inc., priority 1978, dated 1980).

Tests used:
monoamine oxidase (MAO) = experiment: MAO inhibiting activity in liver homogenates of rats after p.o. administration; type: in vivo; details: animals killed one hour after administration, MAO measured in liver homogenates, 60 min
Description: (§1) The MAO inhibiting activity of the compounds of formula I of the invention can be determined using standard methods. Thus, the compounds of formula I to be tested were administered p.o. to rats. One hour thereafter the animals were killed and the MAO inhibiting activity in the liver homogenates was measured according to the method described in Biochem. Pharmacol. 12 (1963) 1439-1441. The activity thus determined of representative compounds of the present invention and their toxicity can be seen from the ED50 values (μmol/kg.p.o. in rats) and LD50 values (mg/kg, p.o. in mice) listed in the Table which follows: […]

[1] = toxicity (LD50) p.o. in mice; details: mouse, in vivo, po
Description: as §1

[2] = toxicity (LD50) p.o. in rats; details: rat, in vivo, po, after 10 days

SMILES | ED50 (MAO inhibiting activity) (monoamine oxidase (MAO)) [µmol/kg] | LD50 [1] [mg/kg] | LD50 at 240 h [2] [mg/kg]
O=C(NCCN1CCOCC1)c1ccc(Cl)cc1Cl [2,4-dichloro-N-(2-morpholinoethyl)-benzamide] | 13 | 1250 to 2500 | 
O=C(NCCN1CCOCC1)c1ccc(Cl)cc1[N+](=O)[O-] [4-chloro-N-(2-morpholinoethyl)-2-nitrobenzamide] | 2 |  | 
O=C(NCCN1CCOCC1)c1ccc(Br)cc1 [p-bromo-N-(2-morpholinoethyl)-benzamide] | 6 | 1250 to 2500 | 
O=C(NCCN1CCOCC1)c1ccc(Cl)cc1 [p-chloro-N-(2-morpholinoethyl)-benzamide] | 5 |  | 707 ± 55
O=C(NCCN1CCOCC1)c1ccc(F)cc1 [p-fluoro-N-(2-morpholinoethyl)-benzamide] | 11 | 1250 to 2500 | 
O=C(NCCN1CCOCC1)c1ccc(I)cc1 [p-iodo-N-(2-morpholinoethyl)-benzamide] | 4 | 1250 to 2500 | 
CC(C)(C)c1ccc(C(=O)NCCN2CCOCC2)cc1 [p-t-butyl-N-(2-morpholinoethyl)-benzamide] | 16 | 1250 to 2500 | 
O=C(NCCN1CCOCC1)c1ccc(C(F)(F)F)cc1 [α,α,α-trifluoro-N-(2-morpholinoethyl)-p-toluamide] | 16 | 1000 to 2000 | 
